Experimental data taken from US9695154B2, “Heteroaryl inhibitors of sumo activating enzyme” (MILLENNIUM PHARMACEUTICALS, INC., priority 2013, dated 2017).

Target: T1, recombinant human SAE enzyme (Homo sapiens, UniProt Q9UBT2)
T1 sequence (Q9UBT2 1-640): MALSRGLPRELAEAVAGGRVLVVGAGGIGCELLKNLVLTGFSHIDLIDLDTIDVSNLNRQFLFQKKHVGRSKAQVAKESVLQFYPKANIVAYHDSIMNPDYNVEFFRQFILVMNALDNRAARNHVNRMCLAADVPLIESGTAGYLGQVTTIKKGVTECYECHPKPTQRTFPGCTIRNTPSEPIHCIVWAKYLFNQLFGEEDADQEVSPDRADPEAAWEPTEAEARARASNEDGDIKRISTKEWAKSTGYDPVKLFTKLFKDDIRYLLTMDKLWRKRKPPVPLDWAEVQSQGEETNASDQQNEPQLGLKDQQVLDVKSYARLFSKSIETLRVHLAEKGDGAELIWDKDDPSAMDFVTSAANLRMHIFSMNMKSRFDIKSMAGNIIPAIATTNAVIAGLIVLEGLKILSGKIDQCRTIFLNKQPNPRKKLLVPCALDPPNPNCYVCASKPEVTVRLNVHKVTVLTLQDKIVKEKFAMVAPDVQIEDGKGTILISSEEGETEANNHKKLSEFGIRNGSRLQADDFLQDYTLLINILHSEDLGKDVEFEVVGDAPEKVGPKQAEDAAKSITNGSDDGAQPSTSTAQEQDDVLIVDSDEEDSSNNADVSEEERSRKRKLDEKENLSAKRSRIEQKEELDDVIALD
T1 sequence (Q9UBE0 1-346 partner): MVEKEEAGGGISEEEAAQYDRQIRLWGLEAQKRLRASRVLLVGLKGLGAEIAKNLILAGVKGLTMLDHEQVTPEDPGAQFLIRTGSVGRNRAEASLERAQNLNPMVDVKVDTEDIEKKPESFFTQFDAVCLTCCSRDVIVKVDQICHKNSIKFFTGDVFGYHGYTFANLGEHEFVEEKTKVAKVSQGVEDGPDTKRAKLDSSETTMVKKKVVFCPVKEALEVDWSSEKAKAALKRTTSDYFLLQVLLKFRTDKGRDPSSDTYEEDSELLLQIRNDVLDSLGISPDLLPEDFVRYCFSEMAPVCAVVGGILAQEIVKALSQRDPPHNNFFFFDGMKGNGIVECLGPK
Experiment: SAE HTRF Enzyme Assay
Assay type: biochemical
Details: for IC50: class symbols A-C; for inhibition at 0.111 µM: compound concentration 0.111 μM, read-out: Percent Inhibition
Outline: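 HTRF signal from Eu-anti-Flag/APC-anti-GST pairs reports Sumo-Flag loaded onto Ubc9-GST by 0.11 nM SAE. Reaction: 0.5 μM ATP, 0.125 μM Sumo-Flag, 0.01 μM Ubc9-GST, 5 mM MgCl2, pH 7.5, 105 min, 24° C. Single-concentration % inhibition or IC50 reported.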

## NS(=O)(=O)OC[C@H]1C[C@@H](Nc2ncncc2C(=O)c2ccn(Cc3cccc(NC(=O)CCl)c3)n2)[C@H](O)[C@@H]1O [Compound I-67, [(1R,2R,3S,4R)-4-({5-[(1-{3-[(chloroacetyl)amino]benzyl}-1H-pyrazol-3-yl)carbonyl]pyrimidin-4-yl}amino)-2,3-dihydroxycyclopentyl]methyl sulfamate]
  IC50: < 10 nM
  inhibition at 0.111 µM: 94%

## NS(=O)(=O)OC[C@H]1C[C@@H](Nc2ncncc2C(=O)c2ccn(Cc3cccc(Br)c3)n2)[C@H](O)[C@@H]1O [Compound I-240, {(1R,2R,3S,4R)-4-[(5-{[1-(3-bromobenzyl)-1H-pyrazol-3-yl]carbonyl}pyrimidin-4-yl)amino]-2,3-dihydroxycyclopentyl}methyl sulfamate]
  IC50: < 10 nM
  inhibition at 0.111 µM: 100%

## Cc1cn(Cc2cccc(Br)c2)cc1C(=O)c1cncnc1N[C@@H]1C[C@H](COS(N)(=O)=O)[C@@H](O)[C@@H]1F [Compound I-149, {(1R,2R,3R,4R)-4-[(5-{[1-(3-bromobenzyl)-4-methyl-1H-pyrrol-3-yl]carbonyl}pyrimidin-4-yl)amino]-3-fluoro-2-hydroxycyclopentyl}methyl sulfamate]
  IC50: 10 to 100 nM
  inhibition at 0.111 µM: 85%

## NS(=O)(=O)OC[C@H]1C[C@@H](Nc2ncncc2C(=O)c2ccn(Cc3ccc4nccn4c3)n2)C[C@@H]1O [Compound I-144, {(1R,2S,4R)-2-hydroxy-4-[(5-{[1-(imidazo[1,2-a]pyridin-6-ylmethyl)-1H-pyrazol-3-yl]carbonyl}pyrimidin-4-yl)amino]cyclopentyl}methyl sulfamate]
  IC50: < 10 nM
  inhibition at 0.111 µM: 97%

## Cn1ccc(C(=O)c2cncnc2N[C@@H]2C[C@H](COS(N)(=O)=O)[C@@H](O)[C@H]2O)n1 [Compound I-345, [(1R,2R,3S,4R)-2,3-dihydroxy-4-({5-[(1-methyl-1H-pyrazol-3-yl)carbonyl]pyrimidin-4-yl}amino)cyclopentyl]methyl sulfamate]
  IC50: 100 to 1000 nM
  inhibition at 0.111 µM: 54%

## NS(=O)(=O)OC[C@H]1C[C@@H](Nc2ncncc2C(=O)c2ccn(Cc3cc(C(F)(F)F)ccc3Cl)n2)[C@@H](F)[C@@H]1O [Compound I-181, [(1R,2R,3R,4R)-4-{[5-({1-[2-chloro-5-(trifluoromethyl)benzyl]-1H-pyrazol-3-yl}carbonyl)pyrimidin-4-yl]amino}-3-fluoro-2-hydroxycyclopentyl]methyl sulfamate]
  IC50: < 10 nM
  inhibition at 0.111 µM: 94%

## NS(=O)(=O)OC[C@H]1C[C@@H](Nc2ncncc2C(=O)c2ccn(Cc3ccc(F)c(OC(F)(F)F)c3)n2)[C@H](O)[C@@H]1O [Compound I-134, [(1R,2R,3S,4R)-4-{[5-({1-[4-fluoro-3-(trifluoromethoxy)benzyl]-1H-pyrazol-3-yl}carbonyl)pyrimidin-4-yl]amino}-2,3-dihydroxycyclopentyl]methyl sulfamate]
  IC50: < 10 nM
  inhibition at 0.111 µM: 98%

## NS(=O)(=O)OC[C@H]1C[C@@H](Nc2ncncc2C(=O)c2ccn(Cc3ccccn3)n2)[C@H](O)[C@@H]1O [Compound I-150, {(1R,2R,3S,4R)-2,3-dihydroxy-4-[(5-{[1-(pyridin-2-ylmethyl)-1H-pyrazol-3-yl]carbonyl}pyrimidin-4-yl)amino]cyclopentyl}methyl sulfamate]
  IC50: < 10 nM
  inhibition at 0.111 µM: 98%

## NS(=O)(=O)OC[C@H]1C[C@@H](Nc2ncncc2C(=O)c2ccn(Cc3ccc(C(F)(F)F)o3)n2)C[C@@H]1O [Compound I-163, [(1R,2S,4R)-2-hydroxy-4-({5-[(1-{[5-(trifluoromethyl)-2-furyl]methyl}-1H-pyrazol-3-yl)carbonyl]pyrimidin-4-yl}amino)cyclopentyl]methyl sulfamate]
  IC50: < 10 nM
  inhibition at 0.111 µM: 98%

## COc1cc(Cn2ccc(C(=O)c3cncnc3N[C@@H]3C[C@H](COS(N)(=O)=O)[C@@H](O)[C@@H]3F)c2)ccc1F [Compound I-57, {(1R,2R,3R,4R)-3-Fluoro-4-[(5-{[1-(4-fluoro-3-methoxybenzyl)-1H-pyrrol-3-yl]carbonyl}pyrimidin-4-yl)amino]-2-hydroxycyclopentyl}methyl sulfamate]
  IC50: < 10 nM
  inhibition at 0.111 µM: 98%

## Cn1cccc(Cn2ccc(C(=O)c3cncnc3N[C@@H]3C[C@H](COS(N)(=O)=O)[C@@H](O)C3)n2)c1=O [Compound I-80, [(1R,2S,4R)-2-hydroxy-4-{[5-({1-[(1-methyl-2-oxo-1,2-dihydropyridin-3-yl)methyl]-1H-pyrazol-3-yl}carbonyl)pyrimidin-4-yl]amino}cyclopentyl]methyl sulfamate]
  IC50: < 10 nM
  inhibition at 0.111 µM: 96%

## C=CC(=O)N(C)c1cccc(Cn2ccc(C(=O)c3cncnc3N[C@@H]3C[C@H](COS(N)(=O)=O)[C@@H](O)[C@@H]3F)n2)c1 [Compound I-116, [(1R,2R,3R,4R)-4-({5-[(1-{3-[Acryloyl(methyl)amino]benzyl}-1H-pyrazol-3-yl)carbonyl]pyrimidin-4-yl}amino)-3-fluoro-2-hydroxycyclopentyl]methyl sulfamate]
  IC50: 100 to 1000 nM
  inhibition at 0.111 µM: 33%

## NS(=O)(=O)OC[C@H]1C[C@@H](Nc2ccncc2C(=O)c2ccn(Cc3cccc(Cl)c3)n2)[C@@H](F)[C@@H]1O [Compound I-242, {(1R,2R,3R,4R)-4-[(3-{[1-(3-chlorobenzyl)-1H-pyrazol-3-yl]carbonyl}pyridin-4-yl)amino]-3-fluoro-2-hydroxycyclopentyl}methyl sulfamate]
  IC50: < 10 nM
  inhibition at 0.111 µM: 96%

## NS(=O)(=O)OC[C@H]1C[C@@H](Nc2ncncc2C(=O)c2ccn(Cc3cccc(C(F)(F)F)c3)n2)[C@@H](F)[C@@H]1O [Compound I-102, [(1R,2R,3R,4R)-3-fluoro-2-hydroxy-4-{[5-({1-[3-(trifluoromethyl)benzyl]-1H-pyrazol-3-yl}carbonyl)pyrimidin-4-yl]amino}cyclopentyl]methyl sulfamate]
  IC50: < 10 nM
  inhibition at 0.111 µM: 97%

## Cc1cc(C(=O)c2cncnc2N[C@@H]2C[C@H](COS(N)(=O)=O)[C@@H](O)[C@@H]2F)nn1Cc1cccc(Br)c1 [Compound I-186, {(1R,2R,3R,4R)-4-[(5-{[1-(3-Bromobenzyl)-5-methyl-1H-pyrazol-3-yl]carbonyl}pyrimidin-4-yl)amino]-3-fluoro-2-hydroxycyclopentyl}methyl sulfamate]
  IC50: < 10 nM
  inhibition at 0.111 µM: > 99%

## Cn1nc(C(F)(F)F)cc1Cn1ccc(C(=O)c2cncnc2N[C@@H]2C[C@H](COS(N)(=O)=O)[C@@H](O)C2)c1 [Compound I-45, [(1R,2S,4R)-2-hydroxy-4-({5-[(1-{[1-methyl-3-(trifluoromethyl)-1H-pyrazol-5-yl]methyl}-1H-pyrrol-3-yl)carbonyl]pyrimidin-4-yl}amino)cyclopentyl]methyl sulfamate]
  IC50: 10 to 100 nM
  inhibition at 0.111 µM: 93%

## NS(=O)(=O)OC[C@H]1C[C@@H](Nc2ncncc2C(=O)c2ccn(Cc3cc(C(F)(F)F)ccc3C(F)(F)F)n2)C[C@@H]1O [Compound I-261, [(1R,2S,4R)-4-{(5-({1-[2,5-bis(trifluoromethyl)benzyl]-1H-pyrazol-3-yl}carbonyl)pyrimidin-4-yl]amino}-2-hydroxycyclopentyl]methyl sulfamate]
  IC50: < 10 nM
  inhibition at 0.111 µM: 97%
